Test results published in patent US11000505B2 (priority 2010, dated 2021).
≈ marks a conversion by molar mass, not a printed value. Where “and” joins values, the source holds several entries; their conditions need not be identical. Equal entries are not always repeated.

What was measured:
[1] = tested on: neonatal mouse hypoxia model; test: Neonatal mouse hypoxia model: mortality, development, neurobehavior (Example 5); assay type: in vivo, C57BL/6J mice
Source text: The protocol was approved by the Institutional Animal Care and Use Committee (IACUC) of the University of Pennsylvania and carried out in accordance with National Institutes of Health guidelines for the use of animals. C57BL/6J mice were purchased from The Jackson Laboratory (Bar Harbor, Me.) and inbreed pups were used for subsequent experiments. Pups were housed under a 12-hour light/dark cycle after birth with free access to food and water throughout the study. Pups from different litters were divided into 3 groups randomly. Pups in the control group (n=11) received i.p. injection of 17% dimethyl sulfoxide (DMSO) without hypoxia insult; the hypoxia group (n=46) received i.p. injection of 17% DMSO and hypoxia insult; SA group (n=26) received i.p. injection of 0.5 mg/kg SA in 17% DMSO and hypoxia insult. Pups of low weight (<1.2 g) were excluded from the study.
The hypoxic insult was induced on postnatal day 1. After i.p. injections, pups were put into a glass chamber in a water bath where the temperature was maintained at 37° C. The chamber was tightly closed and filled with 8% oxygen with balanced nitrogen. Following 120 minutes of hypoxic gas exposure, the chamber was opened and the pups were exposed to the air. Chest compressions and limb stretches were performed for up to 20 minutes to regain spontaneous breathing. The pups that successfully regained spontaneous breathing were then returned to their mothers after recovery for 30 minutes.
The neonate mouse will be considered as non-survival if no spontaneous breathing can be restored for 20 min resuscitation immediately after anoxic insult. The mortality rate will be calculated as: […]=(number of mice in a group-number of non-survival)/number of mice in a group.
From postnatal day 2 to postnatal day 21, the pups were weighed and motor behavior observation was performed every day. Pups were observed individually in a plastic testing box. Each of the following behaviors was recorded for 3 minutes: crawling, walking, running, head point and sniffing, sitting, rearing and eye opening. After the observation, placing reflex, cliff aversion, negative geotaxis, righting response and forelimb grasping testing were performed. The first appearance of the behavior or reflex continued for two consecutive days was recorded.
The open field test was performed to gauge locomotor activity on postnatal day 21 at which the mouse was considered juvenile. Mice were individually placed in a 41 cm (L)×41 cm (W)×30 cm (H) plastic box. The “central area” was defined as a 20.5 cm×20.5 cm square in the center of the box. The rest of the area was defined as the “peripheral area” (see FIG. 25A). The time each mouse spent on exploring the central and periphery parts and the number of rearing behaviors in each respective area were recorded for the first 5 minutes and 30 minutes.
At the age of 10-11 weeks, all mice were tested in several behavioral tasks in the order of: zero mazes, barnes maze and fear conditioning. These tasks were performed to examine the basal anxiety level, spontaneous locomotor activity, motor learning, spatial learning and associative memory of the mice. The mice were given 5 days for rest between each behavioral test.
“Time in open” measures mice anxiety due to their tendency to avoid open spaces. The anxiety was measured by recording the time spent in the open vs. enclosed space. Increased anxiety correlates to decreased time in the open. Open/Closed transitions measure overall activity. Increased transitions equate to greater activity.
Measures the ability to learn with visual cues. Time to Target measures the time taken to find the target hole in an arena with 19 other holes and several visual cues. The Barnes Maze is easier to set-up and probably less stressful and a valid alternative to the Water Maze to study spatial memory. […]

[2] = tested on: basilar artery; test: Subarachnoid hemorrhage model (Example 8); assay type: in vivo
[3] = tested on: pial artery; assay type: in vivo, newborn pigs
[4] = Physical and chemical properties: pKa; conditions: Non-ionizable
[5] = tested on: ERK/MAPK; test: CSF pERK/ERK after pretreatment by ELISA (Example 3); assay type: in vivo, piglets; conditions: 30 minutes after pretreatment
[6] = Solubility in other solvents; conditions: thermodynamic from solid
[7] = tested on: ERK; test: CSF ERK activity (pERK/ERK) after HI by ELISA (Example 2); assay type: in vivo, newborn pigs; conditions: 60 min after HI; 10 μg/kg i.v. at 0 or 30 min after HI
Procedure: Newborn pigs (1-5 days old, 1.2-1.5 kg) of both sexes were used in this study. The animal experimental protocol was approved by the Institutional Animal Care and Use Committee of the University of Pennsylvania. As described previously, Isoflurane (1 to 2 minimum alveolar concentration) was initially used for anesthesia induction, followed by α-chloralose (30-50 mg/kg supplemented with 5 mg/kg/hr intravenously) for maintenance of anesthesia. After tracheotomy, the animals were initially ventilated with room air and kept warm with heating pad to maintain the rectal temperature at 37-39° C. Bilateral femoral arteries were catheterized to monitor the blood pressure, blood gas tensions and pH. The femoral vein was catheterized for medication administration. A closed cranial window, consisting of a steel ring with a glass cover slip, connecting to 3 ports, was placed for direct pial artery visualization and diameter measurement. Small pial arteries (120 to 160 μm) and arterioles (50 to 70 μm) were identified under a microscope, visualized on a monitor connected to the microscope, and measured via a video microscaler (model VPA 550, For-A-Corp., Los Angeles, Calif.). […]
ERK activity were then determined from frozen CSF samples described above. The levels of pERK and ERK were measured by ELISA kits (Enzo Life Sciences International, Inc., Plymouth Meeting, Pa.).

[8] = tested on: pial artery; conditions: 10%-16% changes compared to the baseline
[9] = 10 μg/kg i.v. co-administrated with nor-BIN 1 μM topical
[10] = 10 μg/kg i.v. immediately or 30 min after HI, 60 min after HI

## COC(=O)[C@@H]1C[C@H](OC(C)=O)C(=O)[C@H]2[C@@]1(C)CC[C@H]1C(=O)O[C@H](c3ccoc3)C[C@]21C [Salvinorin A]
[1]; 0.5 mg/kg i.p. before 120 min hypoxia (8% oxygen), postnatal day 1, hypoxia group 70%
  mortality rate: 38.5%
[1]; 0.5 mg/kg i.p. before hypoxia
  delayed appearance of forelimb grasping, cliff aversion, righting response and eye opening: prevented these delays
  pups survived after HI injury: 16 out of 26
[1]; P7, P14 and P21
  body weight difference among groups: no significant difference was observed among groups
[1]; P21
  time in the central area, open field testing: not statistically significant
[1]; P21, first 5 minutes and 30 minutes
  rearing test: impairment was not observed
[1]; age 10-11 weeks
  Barnes maze spatial memory: no significant difference among groups
  elevated zero maze: time in open arm and open/closed transitions, SA vs hypoxia: no significant differences
  fear conditioning: no significant differences were observed among groups
[1]; hypoxia 19.86±0.29, control 18.18±0.44, mean±SEM, listed as SA
  first appearance of rearing without support: 18.69 ± 0.38 days and 18.69 ± 0.3843 days
[1]; mouse, in vivo
  other developmental parameters (crawling, walking, running, head point and sniffing, sitting, rearing with support, negative geotaxis, placing reflex): no statistical significance
[1]; postnatal day 2 and day 3
  body weight vs hypoxia group: increased body weight
[2]; 24 hour after SAH
  neurological score: no significant effect on the neurological score
[2]; 24 hours after SAH, H&E
  diameter of the basilar artery: increased the diameter
  thickness of the wall of the basilar artery: decreased the thickness of the wall
[3]; [9]
  pial artery dilation response to hypercapnia after HI with nor-BIN: abolished completely
  pial artery dilation response to hypotension after HI with nor-BIN: abolished
[3]; [10]
  pial artery dilation response to hypercapnia after HI: preserved the dilation responses of pial artery to hypercapnia
  pial artery dilation response to hypotension after HI: preserved the dilation responses of pial artery to hypotension
[4]
  pKa: None
[5]
  ratio of pERK/ERK in CSF: increased significantly
[5]; U0126 30 minutes before salvinorin
  ratio of pERK/ERK in CSF with U0126: unchanged
[6]; 1,2-propanediol, organic solvent or mixture
  solubility: 59 µg/mL (≈ 136 µM)
[6]; 1.25% Polysorbate 80 and […] Solutol HS15, aqueous with cosolvent or surfactant or cyclodextrin
  solubility: 25 µg/mL (≈ 57.8 µM)
[6]; 2-propanol, organic solvent or mixture
  solubility: 22 µg/mL (≈ 50.9 µM)
[6]; 5% Solutol HS15, aqueous with cosolvent or surfactant or cyclodextrin
  solubility: 26 µg/mL (≈ 60.1 µM)
[6]; 5% Vitamin E TPGS, aqueous with cosolvent or surfactant or cyclodextrin
  solubility: 45 µg/mL (≈ 104 µM)
[6]; 10% Tetraglycol, aqueous with cosolvent or surfactant or cyclodextrin
  solubility: < 2 µg/mL
[6]; 10% bile salts, aqueous with cosolvent or surfactant or cyclodextrin
  solubility: < 2 µg/mL
[6]; DMSO, organic solvent or mixture
  solubility: > 1000 µg/mL
[6]; N,N-dimethylacetamide, organic solvent or mixture
  solubility: > 5000 µg/mL
[6]; N-methylpyrolidinone, organic solvent or mixture
  solubility: > 10000 µg/mL
[6]; […] Polysorbate 80, aqueous with cosolvent or surfactant or cyclodextrin
  solubility: < 2 µg/mL
[6]; ethanol, organic solvent or mixture
  solubility: > 1000 µg/mL
[6]; glyceryl monocaprylate, oil or lipid
  solubility: < 2 µg/mL
[6]; water
  solubility: < 2 µg/mL
[7]
  CSF ERK activity (pERK/ERK): reduced to the baseline level
[8]
  concentration required to effectively dilate pial arteries: 10 nM
